Measured values taken from ChEMBL document CHEMBL2331281, “Isolation of ciliatamide D from a marine sponge Stelletta sp. and a reinvestigation of the configuration of ciliatamide A” (J Nat Prod, 2013).
Active and inactive are the calls of the source. The rule behind the calls is not given here.

Tests used:
[1] = system: HeLa; assay: Cytotoxicity against human HeLa cells at 50 ug/ml after 72 hrs by MTT assay; assay type: functional, cell-based
[2] = target: Cathepsin B (Homo sapiens) (UniProt P07858); assay: Inhibition of cathepsin B (unknown origin) using Z-Arg-Arg-AMC as substrate at 50 ug/ml after 30 mins by fluorescence assay

inhibition [2]: inactive
SMILES: C=CCCCCCCCC(=O)N(C)[C@@H](CC[S+](C)[O-])C(=O)N[C@H]1CCCCNC1=O (mixture of isomers)
Activity [1]: inactive
